The target in this test is CXCR3 (Macaca fascicularis, UniProt A0A2K5UV19). Kind of test: functional cellular assay measuring calcium flux in CXCR3 transfected cells (block of CXCR3/IP-10 interaction). The following applies: IP-10 induced intracellular calcium flux; Cyno-CHO cells stably expressing recombinant CXCR3 and G-alpha-16; IP-10 at EC80; read-out: IC50. It is filed as cell-based, Cyno. A digest of the protocol:
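Inhibition of IP-10-induced calcium flux at 10 microM final compound, 15 min room-temperature preincubation, with IP-10 at EC80. Cells: CHO stably transfected with cynomolgus CXCR3 plus G-alpha-16, dye-loaded (Ca-4, 2 mM probenecid, HBSS/HEPES pH 7.4) 1 h at 37° C.; fluorescence ex 480/em 540 nm.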
(Calcium flux is commonly read through the fluorescence of an indicator in the cells.)

Sequence of CXCR3 (A0A2K5UV19 entry or part of it): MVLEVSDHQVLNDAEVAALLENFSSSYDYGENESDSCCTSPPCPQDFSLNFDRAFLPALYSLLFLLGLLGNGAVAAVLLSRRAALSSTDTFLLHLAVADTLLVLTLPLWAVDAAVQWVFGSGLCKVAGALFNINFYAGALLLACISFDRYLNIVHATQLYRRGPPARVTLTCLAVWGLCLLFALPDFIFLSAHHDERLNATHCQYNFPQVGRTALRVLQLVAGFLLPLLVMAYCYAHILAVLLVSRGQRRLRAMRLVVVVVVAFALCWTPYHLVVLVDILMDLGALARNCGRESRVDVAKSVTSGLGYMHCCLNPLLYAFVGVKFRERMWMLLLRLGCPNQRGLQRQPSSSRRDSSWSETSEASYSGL

The IC50 is the concentration that inhibits the measured activity by half. Consider `Cc1cc(C)n(CC(=O)N2CCN(c3ccc(F)cc3-c3cnc(N4CCN(C)CC4)nc3)CC2)n1` [2-(3,5-dimethyl-1H-pyrazol-1-yl)-1-(4-{4-fluoro-2-[2-(4-methylpiperazin-1-yl)pyrimidin-5-yl]phenyl}piperazin-1-yl)ethanone], for which the IC50 was 40 nM.
To `COc1ncc(-c2cc(C#N)ccc2N2CCN(C(=O)Cn3ccc4cccnc43)CC2)cn1` [3-(2-Methoxy-pyrimidin-5-yl)-4-[4-(2-pyrrolo[2,3-b]pyridin-1-yl-acetyl)-piperazin-1-yl]-benzonitrile] belongs 7 nM; to `COC[C@@H]1CCCN1c1ncc(-c2ccccc2N2CCN(C(=O)Cn3nc(C)cc3C)CC2)cn1` [2-(3,5-Dimethyl-pyrazol-1-yl)-1-(4-{2-[2-((S)-2-methoxymethyl-pyrrolidin-1-yl)-pyrimidin-5-yl]-phenyl}-piperazin-1-yl)-ethanone], 12 nM.
`O=C(Cn1ccc2ccncc21)N1CCN(c2ccc(F)cc2-c2cnc(N3CCCC3)nc2)CC1` [1-(4-{4-fluoro-2-[2-(pyrrolidin-1-yl)pyrimidin-5-yl]phenyl}piperazin-1-yl)-2-(1H-pyrrolo[2,3-c]pyridin-1-yl)ethanone]: the IC50 worked out at 14 nM.
To `Cc1cc(C)n(CC(=O)N2CCN(c3ccc(F)cc3-c3cnc(N4CCC(S(C)(=O)=O)CC4)nc3)CC2C)n1` (stereo not shown) [2-(3,5-dimethyl-1H-pyrazol-1-yl)-1-[4-(4-fluoro-2-{2-[4-(methylsulfonyl)piperidin-1-yl]pyrimidin-5-yl}phenyl)-2-methylpiperazin-1-yl]ethanone] belongs 10 nM; to `Cc1cc(C)n(CC(=O)N2CCN(c3ccc(F)cc3-c3cnc(N4CCCC4)nc3)CC2)n1` [2-(3,5-dimethyl-1H-pyrazol-1-yl)-1-(4-{4-fluoro-2-[2-(pyrrolidin-1-yl)pyrimidin-5-yl]phenyl}piperazin-1-yl)ethanone], 16 nM; to `COc1cc(NC(=O)c2cc(F)ccc2N2CCN(C(=O)CN(C)C(=O)c3ncoc3C)[C@H](C)C2)ccn1` [N-{2-[(2R)-4-{4-fluoro-2-[(2-methoxypyridin-4-yl)carbamoyl]phenyl}-2-methylpiperazin-1-yl]-2-oxoethyl}-N,5-dimethyl-1,3-oxazole-4-carboxamide], 12 nM.
In the case of `O=C(Cn1ccc2cccnc21)N1CCN(c2ccccc2-c2cnc(N3CCCOCC3)nc2)CC1` [1-{4-[2-(2-[1,4]Oxazepan-4-yl-pyrimidin-5-yl)-phenyl]-piperazin-1-yl}-2-pyrrolo[2,3-b]pyridin-1-yl-ethanone] it was 9 nM; in that of `CS(=O)(=O)C1CCN(c2ncc(-c3cc(F)ccc3N3CCN(C(=O)Cn4cnc5cccnc54)CC3)cn2)CC1` [1-[4-(4-fluoro-2-{2-[4-(methylsulfonyl)piperidin-1-yl]pyrimidin-5-yl}phenyl)piperazin-1-yl]-2-(3H-imidazo[4,5-b]pyridin-3-yl)ethanone], 10 nM.
Consider `O=C(Cn1ccc2cccnc21)N1CCC(c2ccccc2-c2cnc(N3CCOCC3)nc2)CC1` [1-{4-[2-(2-Morpholin-4-yl-pyrimidin-5-yl)-phenyl]-piperidin-1-yl}-2-pyrrolo[2,3-b]pyridin-1-yl-ethanone], for which the IC50 came out at 11 nM.
As for `C[C@H]1CN(c2ccc(F)cc2C(=O)Nc2nc3c(s2)CN(C)CC3)CCN1C(=O)CN1CCCCC1=O` [5-fluoro-2-{(3S)-3-methyl-4-[(2-oxopiperidin-1-yl)acetyl]piperazin-1-yl}-N-(5-methyl-4,5,6,7-tetrahydro[1,3]thiazolo[5,4-c]pyridin-2-yl)benzamide], the IC50 came out at 17 nM.
To `Cc1cc(C)n(CC(=O)N2CCN(c3ccccc3-c3cnc(N4CCCC(C(F)(F)F)C4)nc3)CC2)n1` (stereo not shown) [2-(3,5-Dimethyl-pyrazol-1-yl)-1-(4-{2-[2-(3-trifluoromethyl-piperidin-1-yl)-pyrimidin-5-yl]-phenyl}-piperazin-1-yl)-ethanone] belongs 12 nM; to `COc1ncc(-c2cc(Cl)ccc2N2CCN(C(=O)Cn3ccc4cccnc43)CC2)cn1` [1-{4-[4-Chloro-2-(2-methoxy-pyrimidin-5-yl)-phenyl]-piperazin-1-yl}-2-pyrrolo[2,3-b]pyridin-1-yl-ethanone], 7 nM; to `C[C@H]1CN(c2ccc(F)cc2C(=O)Nc2nc3c(s2)CN(C)CC3)CCN1C(=O)Cn1c(=O)[nH]c2ccccc21` [5-fluoro-2-{(3S)-3-methyl-4-[(2-oxo-2,3-dihydro-1H-benzimidazol-1-yl)acetyl]piperazin-1-yl}-N-(5-methyl-4,5,6,7-tetrahydro[1,3]thiazolo[5,4-c]pyridin-2-yl)benzamide], 12 nM.
In the case of `Cc1ccc(-c2ccccc2N2CCN(C(=O)Cn3nc(C)cc3C)CC2)cc1` [2-(3,5-Dimethyl-pyrazol-1-yl)-1-[4-(4′-methyl-biphenyl-2-yl)-piperazin-1-yl]-ethanone] it was 70 nM; in that of `CNc1ncc(-c2cc(Cl)ccc2N2CCN(C(=O)Cn3nc(C)cc3C)CC2)cn1` [1-{4-[4-Chloro-2-(2-methylamino-pyrimidin-5-yl)-phenyl]-piperazin-1-yl}-2-(3,5-dimethyl-pyrazol-1-yl)-ethanone], 13 nM.
In the case of `Cc1ocnc1C(=O)N(C)CC(=O)N1CCN(c2ccc(F)cc2C(=O)Nc2nc3c(s2)CN(C)CC3)C[C@H]1C` [N-{2-[(2R)-4-{4-fluoro-2-[(5-methyl-4,5,6,7-tetrahydro[1,3]thiazolo[5,4-c]pyridin-2-yl)carbamoyl]phenyl}-2-methylpiperazin-1-yl]-2-oxoethyl}-N,5-dimethyl-1,3-oxazole-4-carboxamide] it was 35 nM.
`COc1ncc(-c2cc(Cl)ccc2N2CCN(C(=O)Cn3nc(C)cc3C)CC2)cn1` [1-{4-[4-Chloro-2-(2-methoxy-pyrimidin-5-yl)-phenyl]-piperazin-1-yl}-2-(3,5-dimethyl-pyrazol-1-yl)-ethanone]: the 50% inhibitory concentration (IC50) turned out to be 12 nM.
In the case of `CC1CN(c2ccc(C(F)(F)F)cc2-c2cnc(N3CCC(O)CC3)nc2)CCN1C(=O)CN1Cc2ccccc2C1=O` (stereo not shown) [2-[2-(4-{2-[2-(4-hydroxypiperidin-1-yl)pyrimidin-5-yl]-4-(trifluoromethyl)phenyl}-2-methylpiperazin-1-yl)-2-oxoethyl]-2,3-dihydro-1H-isoindol-1-one] it was 9 nM; in that of `CC1CN(c2ccc(F)cc2-c2cnc(S(C)(=O)=O)nc2)CCN1C(=O)CN1Cc2ccccc2C1=O` (stereo not shown) [2-[2-(4-{4-fluoro-2-[2-(methylsulfonyl)pyrimidin-5-yl]phenyl}-2-methylpiperazin-1-yl)-2-oxoethyl]-2,3-dihydro-1H-isoindol-1-one], 245 nM.
In the case of `Cc1cc(C)n(CC(=O)N2CCN(c3ccccc3-c3cnc(N4C[C@H]5CC[C@@H]4C5)nc3)CC2)n1` [1-(4-{2-[(1R,4S)-2-(2-Aza-bicyclo[2.2.1]hept-2-yl)-pyrimidin-5-yl]-phenyl}-piperazin-1-yl)-2-(3,5-dimethyl-pyrazol-1-yl)-ethanone] it was 4 nM; in that of `CC1CN(c2ccc(C(F)(F)F)cc2-c2cnc(S(C)(=O)=O)nc2)CCN1C(=O)CN1Cc2ccccc2C1=O` (stereo not shown) [2-[2-(2-methyl-4-{2-[2-(methylsulfonyl)pyrimidin-5-yl]-4-(trifluoromethyl)phenyl}piperazin-1-yl)-2-oxoethyl]-2,3-dihydro-1H-isoindol-1-one], 101 nM.

The values are drawn from patent publication US8450317B2, “CXCR3 receptor antagonists” (Boehringer Ingelheim International GmbH, priority 2009, dated 2013).
